From PubChem BioAssay AID2305 (GlaxoSmithKline (GSK), 2010) come the findings set out here.

This assay relates to P. falciparum 3D7 growth, pLDH absorbance. Kind of assay: P. falciparum 3D7 growth inhibition, dose response, strain 3D7 (AID 2305).

On to `COc1ccc(Nc2ncc3c(-c4cccc(NC(=O)c5ccccc5)c4)c[nH]c3n2)cc1OC`, for which the IC50 stood at 460 nM.

On to `O=C(NC1CC1)c1cnc(N2CCC(COc3cccc(F)c3)CC2)c(Cl)c1`, for which the IC50 came out at 1200 nM. This IC50 lies about 2.6-fold higher than the previous one.

With `COc1cc(OC)cc(-c2nn(-c3ccc([N+](=O)[O-])cc3Cl)c(=S)n2CC2CCCO2)c1` (stereo unspecified), the IC50 is 960 nM.

As to `Cc1cc(N[C@@H](Cc2ccccc2)C(=O)Nc2ccccc2)nc(NCCN2CCCC2)n1`, the IC50 amounted to 1810 nM. Against the preceding molecule, the IC50 is about 1.9-fold higher.

In the case of `Cc1cccc2[nH]c(-c3ccc(-c4ccc(NC(=O)NCc5cccc(F)c5)cc4)s3)nc12`, the IC50 was 890 nM.

Turning to `O=C(NC1CCCCCC1)C1CCCN(C(=O)c2ccc(O)c(-c3ccc(Cl)c(Cl)c3)c2)C1` (stereo unspecified), the IC50 was determined as 760 nM.

The molecule `COC(=O)c1ccc(CCC(C)NCC(O)c2cccc(C(F)(F)F)c2)cc1` (stereo unspecified) displayed an IC50 of 410 nM.

Take `CCCCN(CCCC)CC(O)c1cc(-c2ccc(Cl)cc2)nc2c(Cl)cc(Cl)cc12` (stereo unspecified): the IC50 stood at 30 nM.

Molecule `CCCNCCc1ccc(NS(=O)(=O)c2cccc(-c3ccc(Cl)cc3)c2)cc1` came in with an IC50 of 970 nM.

`NC1=NC(Cc2ccccc2)(c2ccncc2)C(=O)N1CCCc1ccccc1` (stereo unspecified): the IC50 is 940 nM.

`CCCCCCCNC(=O)NCC1CCCN(CCCCCNC(=O)/C=C/c2ccc(Cl)c(Cl)c2)C1` (stereo unspecified) came in with an IC50 of 1040 nM.

Take `O=C(NC(Cc1ccccc1)C(=O)O)c1cc(=O)c2ccccc2o1` (stereo unspecified): the IC50 stood at 190 nM.

`CCn1c(SCc2ccc(F)cc2)nc2sc3c(c2c1=O)CCN(C)C3` had an IC50 of 250 nM. The IC50 values of the last two molecules are within 1.5-fold of each other.

The molecule `C=CCn1ccc2c3c(N)nc(N)nc3ccc21` came in with an IC50 of 70 nM.

In turn, `COc1cccc2cc(C(=O)N[C@@H](CC(C)C)C(=O)NC(/C=N/NC(=O)c3ccccc3)CCc3ccccc3)oc12` (stereo partly specified) registered an IC50 of 580 nM. This IC50 is about 8.3-fold higher than that of the molecule before.

`CN1CCN(Cc2ccc(-c3ccc4c(Nc5ccc(Oc6ccccc6)cc5)ccnc4c3)o2)CC1` yielded an IC50 of 180 nM.

The molecule `CC(C)c1ccc(CN2CCCCC(NC(=O)c3cc(-c4ccccc4F)cs3)C2)cc1` (stereo unspecified) came in with an IC50 of 670 nM.

The molecule `COc1cc(NC(=O)/C=C/c2ccccc2OC(F)(F)F)cc(OCCN2CCN(CCN3CCOCC3)CC2)c1` returned an IC50 of 160 nM.

On to `O=C(Nc1ccc2ccccc2n1)c1ccccc1-c1ccccc1`, for which the IC50 was found to be 440 nM.

On to `CN(C)c1ccc(NC2=NC(C)(C)N=C(N)N2)cc1`, for which the IC50 stood at 220 nM.

Molecule `CC1(C)N=C(N)N=C(N)N1c1ccc(Oc2ccccc2)cc1` came in with an IC50 of 340 nM.

`CCC(C)NC(=O)Nc1cccc(-c2cccc(-c3nc4c(C)cccc4[nH]3)c2)c1` (stereo unspecified) gave an IC50 of 810 nM. This IC50 lies about 2.4-fold higher than the previous one.

Molecule `CC(Oc1ccc(Cl)cc1Cl)c1nc(-c2ccc(NC(=O)c3ccco3)cc2)no1` (stereo unspecified) came in with an IC50 of 900 nM.

In turn, `COc1ccc2nccc([C@@H](O)CN3CC[C@H](NCc4nc5c(cc4Cl)OCC(=O)N5)[C@H](F)C3)c2c1` came in with an IC50 of 1320 nM.

`CCNc1cc(C(=O)N[C@@H](Cc2ccc(F)c(F)c2)[C@H](O)CNCc2cccc(OC)c2)cc(N2CCCCS2(=O)=O)c1` registered an IC50 of 750 nM.

Take `CC(C)NCc1cc(Nc2ccnc3cc(Cl)ccc23)ccc1O`: the IC50 was 20 nM.

In turn, `CCN(CCCNc1nc(=S)[nH]c2cc(OC)c(OC)cc12)c1ccccc1` displayed an IC50 of 720 nM.

Consider `O=c1ccc2ccc(F)c3c2n1CC3CN1CCC(NCc2cccc(-c3cccs3)c2)CC1` (stereo unspecified), for which the IC50 turned out to be 830 nM.

As to `CCCNCc1ccc(-c2ccc(CN(C(=O)c3nn(-c4ccccc4)nc3C)C3CC3)cc2)nc1`, the IC50 came to 210 nM. This IC50 is about 4-fold lower than that of the molecule before.

`CC(=O)Nc1ccc(C(=O)Nc2cccc(-c3csc(-c4nc5ccccc5[nH]4)c3)c2)cn1` returned an IC50 of 120 nM.

In the case of `CCOc1cc(C)ccc1C1CCN(CCN2CCC(CNC(=O)c3ccc(-c4ccc(C(F)(F)F)cc4)cc3)CC2)CC1`, the half-inhibitory concentration (IC50) amounted to 700 nM.

For the molecule `CCCC(C)N(Cc1ccc(C(C)(C)C)cc1)C(=O)c1cccc(OC)c1` (stereo unspecified), the IC50 was determined as 340 nM.

Molecule `CN1CCN(c2ccnc3ccc(NC(=O)Nc4ccc5ccccc5c4)cc23)CC1` showed an IC50 of 80 nM. Against the preceding molecule, the IC50 is about 4.2-fold lower.

For the molecule `CC(=NO)C1=C(O)C(c2ccccc2)N(c2ccccc2)C1=O` (stereo unspecified), the IC50 was found to be 700 nM.

`CCN(CC)CCN(Cc1ccc(-c2ccc(C(F)(F)F)cc2)cc1)C(=O)Cn1c(SCc2ccc(F)cc2)cc(=O)c2ccccc21` came in with an IC50 of 750 nM. This IC50 and that of the molecule before are within 1.5-fold of each other.

With `CCCCCCN1CCC(CNCc2cccc([N+](=O)[O-])c2)CC1`, the half-inhibitory concentration (IC50) worked out at 720 nM. The IC50 values of the last two molecules are within 1.5-fold of each other.

In the case of `O=C(O[C@@H]1CN[C@H](C#Cc2cc3ncnc(Nc4ccc5c(cnn5Cc5cccc(F)c5)c4)c3s2)C1)N1CCCC1`, the IC50 turned out to be 760 nM.

`Cc1nc(N/C=C/c2ccc(O)cc2)cc(N2CCCC2)n1` yielded an IC50 of 1070 nM.

Molecule `CCN(CC)CCN(CCN(CC)CC)c1ccc(-c2nc3cc(Cl)c(Cl)cc3[nH]2)cc1` showed an IC50 of 780 nM.

Molecule `O=C(C=Cc1ccccc1)Nc1ccc(C#CC=Cc2ccc(NC(=O)C=Cc3ccccc3)cc2)cc1` showed a 50% inhibitory concentration (IC50) of 850 nM. This IC50 and that of the molecule before are within 1.5-fold of each other.

With `Cc1cnc(CN(Cc2ccc(-c3ccc(CNCCc4ccc(S(C)(=O)=O)cc4)cn3)cc2)C(=O)c2ccc([N+](=O)[O-])c(C)c2)cn1`, the IC50 came to 920 nM.

`CCCN(CCC)CCOc1ccc(C(O)(C#CC(O)(c2ccc(OCCN(CCC)CCC)cc2)c2cccc(Cl)c2)c2cccc(Cl)c2)cc1` (stereo unspecified): the IC50 is 790 nM.

In the case of `N=C(N)c1ccc(Nc2nccc(Nc3nc(-c4ccccc4)cs3)n2)cc1`, the IC50 was found to be 750 nM.

Regarding `NCc1ccc(-c2ccc3c(N)nccc3c2)cc1`, the IC50 turned out to be 890 nM.

`CCCCn1c(Sc2ccc(C#N)c([N+](=O)[O-])c2)nnc1-c1ccc(OC)cc1` displayed an IC50 of 1030 nM. This IC50 and that of the molecule before are within 1.5-fold of each other.

Molecule `CCN(CC)CCN(Cc1ccc(-c2ccc(C(F)(F)F)cc2)cc1)C(=O)Cn1c(CCc2cc(F)cc(F)c2F)nc(=O)c2ccccc21` had an IC50 of 760 nM.

Take `CN1CCN(Cc2cc(NC(=O)c3ccc(-c4ccc(Cl)cc4Cl)cc3)ccc2-c2ccccc2)CC1`: the IC50 came to 970 nM.

In turn, `Cc1cccc2[nH]c(-c3ccc(-c4cccc(CNCc5ccc(S(C)(=O)=O)cc5)c4)s3)nc12` returned an IC50 of 330 nM.

`COc1ccc(-c2ccc(NC(=O)c3cccc(F)c3)cc2)cc1CNC(C)C` showed an IC50 of 810 nM.

`FC(F)(F)c1ccc2c(NCCNc3ccnc4cc(C(F)(F)F)ccc34)ccnc2c1` displayed an IC50 of 30 nM.

Take `FC(F)(F)c1cccc(CCNc2nccc(NCc3ccc(Cl)cc3Cl)n2)c1`: the IC50 is 860 nM. This IC50 lies about 29-fold higher than the previous one.

With `O=S(=O)(Nc1ccc2nccc(N3CCNCC3)c2c1)c1ccc2c(Cl)cccc2c1`, the IC50 was determined as 570 nM.

Take `Cc1cc(Nc2nc(NCc3cccnc3)nc3ccccc23)n[nH]1`: the IC50 is 850 nM.

In turn, `COc1ccc(OC(C)CNC(=O)c2cc([N+](=O)[O-])ccc2-c2ccc(OC)cc2)cc1` (stereo unspecified) came in with an IC50 of 1150 nM. The IC50 values of the last two molecules are within 1.5-fold of each other.

Consider `CCCCCCNC[C@@H](O)[C@H](Cc1ccccc1)NC(=O)c1cc(NCC)cc(N2CCCCS2(=O)=O)c1`, for which the IC50 came out at 1000 nM.

The molecule `CN(C)Cc1cccc(-c2ccc(NC(=O)c3ccc4c(=O)n(CCN5CCCCC5)cnc4c3)cc2)c1` showed an IC50 of 650 nM.

Take `NC1CCN(CCc2ccc(NS(=O)(=O)c3cccc4ccccc34)cc2)CC1`: the IC50 was found to be 1700 nM.

Molecule `O=C(/C=C/c1ccc(Cl)c(Cl)c1)NCCCCCCN1CCN(C(=O)Nc2cc(F)cc(F)c2)CC1` gave an IC50 of 1070 nM.

Turning to `O=C(/C=C/c1ccc(Cl)c(Cl)c1)NCCCCCN1CCC(NC(=O)Nc2cccc(C(F)(F)F)c2)CC1`, the IC50 was 700 nM.

Consider `CC(C)Cn1c(Sc2ccc(C#N)c([N+](=O)[O-])c2)nnc1-c1cccs1`, for which the IC50 is 1080 nM.

For the molecule `CC(C)c1ccc(Nc2nc(NCCc3cnc[nH]3)nc(NCc3ccccc3)n2)cc1`, the IC50 is 690 nM.
